Data from US20200407365A1, “INDOLE-2-CARBONYL COMPOUNDS AND THEIR USE FOR THE TREATMENT OF HEPATITIS B” (Novartis AG, priority 2018, published 2020).

Each compound was assayed on HBV replication in HepG2.cl42 cells (assay: Anti-HBV assay (HBV DNA by quantitative real time PCR in HepG2.cl42 cells)). Settings: Hepatitis B virus, 96 h, compound treatment four days, read-out: HBsAg EC50.
Type: cell-based, HBV ayw strain
With `Cc1ccc2[nH]c(C(=O)N3CCn4ncc(N5CC(C)(C)OC5=O)c4C3)cc2c1` [Compound 2.15] the EC50 was 0.1 to 1 µM.
In the case of `CC1(C)CC(=O)N(c2cnn3c2CN(C(=O)c2cc4ccccc4[nH]2)CC3)C1` [Compound 1.2], the EC50 is reported as 0.1 to 1 µM.
For `COC[C@H]1CN(c2cnn3c2CN(C(=O)c2cc4ccccc4[nH]2)CC3)C(=O)O1` [Compound 3.1, (R)-3-(5-(1H-indole-2-carbonyl)-4,5,6,7-tetrahydropyrazolo[1,5-a]pyrazin-3-yl)-5-(methoxymethyl)oxazolidin-2-one], the EC50 was < 0.1 µM.
`CC1(C)CN(c2cnn3c2CN(C(=O)c2cc4cc(F)ccc4[nH]2)CC3)C(=O)O1` [Compound 2.6] was tested, and the EC50 was < 0.1 µM.
With `CC1(C)CN(c2cnn3c2CN(C(=O)c2cc4ccc(F)cc4[nH]2)CC3)C(=O)O1` [Compound 2.7] the EC50 was < 0.1 µM.
With `Cc1ccc2cc(C(=O)N3CCn4ncc(N5CC(C)(C)OC5=O)c4C3)[nH]c2c1` [Compound 2.12] the EC50 was < 0.1 µM.
In the case of `CC1(C)CN(c2cnn3c2CN(C(=O)c2cc4cnc(Cl)cc4[nH]2)CC3)C(=O)O1` [Compound 2.21], the EC50 is reported as 0.1 to 1 µM.
For `CC1(C)COC(=O)N(c2cnn3c2CN(C(=O)c2cc4ccccc4[nH]2)CC3)C1` [Compound 3.3], the EC50 was 0.1 to 1 µM.
Compound `CC1(C)CN(c2cnn3c2CN(C(=O)c2cc4ccc(C#N)cc4[nH]2)CC3)C(=O)O1` [Compound 2.11] has an EC50 of 0.1 to 1 µM.
With `COc1cccc2cc(C(=O)N3CCn4ncc(N5CC(C)(C)OC5=O)c4C3)[nH]c12` [Compound 2.19] the EC50 was > 1 µM.
In the case of `C[C@H]1Cn2ncc(N3CC(C)(C)OC3=O)c2CN1C(=O)c1cc2ccccc2[nH]1` [Compound 2.23], the EC50 is reported as > 1 µM.
In the case of `Cc1cccc2[nH]c(C(=O)N3CCn4ncc(N5CC(C)(C)OC5=O)c4C3)cc12` [Compound 2.14], the EC50 is reported as < 0.1 µM.
With `CC1(C)CN(c2cnn3c2CN(C(=O)c2[nH]c4ccccc4c2C#N)CC3)C(=O)O1` [Compound 2.4] the EC50 was > 1 µM.
`CC1(C)CN(c2cnn3c2CN(C(=O)c2cc4c(F)cccc4[nH]2)CC3)C(=O)O1` [Compound 2.22] was tested, and the EC50 was < 0.1 µM.
For `CC1(C)CN(c2cnn3c2CN(C(=O)c2cc4ccccc4[nH]2)CC3)C(=O)O1` [Compound 2.1, 3-(5-(1H-indole-2-carbonyl)-4,5,6,7-tetrahydropyrazolo[1,5-a]pyrazin-3-yl)-5,5-dimethyloxazolidin-2-one], the EC50 was < 0.1 µM.
In the case of `O=C(c1cc2ccccc2[nH]1)N1CCc2noc(N3CCCCC3=O)c2C1` [Compound 4.1, 1-(5-(1H-indole-2-carbonyl)-4,5,6,7-tetrahydroisoxazolo[4,3-c]pyridin-3-yl)piperidin-2-one], the EC50 is reported as < 0.1 µM.
For `CC1(C)CCN(c2cnn3c2CN(C(=O)c2cc4ccccc4[nH]2)CC3)C1=O` [Compound 1.1, 1-(5-(1H-indole-2-carbonyl)-4,5,6,7-tetrahydropyrazolo[1,5-a]pyrazin-3-yl)-3,3-dimethylpyrrolidin-2-one], the EC50 was > 1 µM.
For `CC1(C)CN(c2cnn3c2CN(C(=O)c2cc4cc(Cl)ccc4[nH]2)CC3)C(=O)O1` [Compound 2.16], the EC50 was 0.1 to 1 µM.
With `Cc1c(C(=O)N2CCn3ncc(N4CC(C)(C)OC4=O)c3C2)[nH]c2ccccc12` [Compound 2.2] the EC50 was > 1 µM.
In the case of `COc1ccc2cc(C(=O)N3CCn4ncc(N5CC(C)(C)OC5=O)c4C3)[nH]c2c1` [Compound 2.13], the EC50 is reported as 0.1 to 1 µM.
With `COC[C@@H]1CN(c2cnn3c2CN(C(=O)c2cc4ccccc4[nH]2)CC3)C(=O)CO1` [Compound 1.3] the EC50 was 0.1 to 1 µM.
With `CC1(C)CN(c2cnn3c2CN(C(=O)c2[nH]c4ccccc4c2Cl)CC3)C(=O)O1` [Compound 2.5] the EC50 was > 1 µM.
In the case of `O=C(c1cc2ccccc2[nH]1)N1CCn2ncc(N3CCCCC3=O)c2C1` [Compound 1.6], the EC50 is reported as 0.1 to 1 µM.
`O=C(c1cc2ccccc2[nH]1)N1CCn2ncc(N3CCOCC3=O)c2C1` [Compound 1.4] was tested, and the EC50 was 0.1 to 1 µM.
For `CC1(C)CN(c2cnn3c2CN(C(=O)c2cc4c(Cl)cccc4[nH]2)CC3)C(=O)O1` [Compound 2.20], the EC50 was < 0.1 µM.
`CC1(C)CN(c2cnn3c2CN(C(=O)c2cc4ccc(Cl)cc4[nH]2)CC3)C(=O)O1` [Compound 2.8] was tested, and the EC50 was < 0.1 µM.
In the case of `COc1ccc2[nH]c(C(=O)N3CCn4ncc(N5CC(C)(C)OC5=O)c4C3)cc2c1` [Compound 2.10], the EC50 is reported as > 1 µM.
Work on `CC1(C)CN(c2cnn3c2CN(C(=O)c2cc4cccc(F)c4[nH]2)CC3)C(=O)O1` [Compound 2.17] yielded an EC50 of 0.1 to 1 µM.
For `CCc1c(C(=O)N2CCn3ncc(N4CC(C)(C)OC4=O)c3C2)[nH]c2ccccc12` [Compound 2.3], the EC50 was > 1 µM.
In the case of `COC[C@@H]1CN(c2cnn3c2CN(C(=O)c2cc4ccccc4[nH]2)CC3)C(=O)O1` [Compound 3.2], the EC50 is reported as 0.1 to 1 µM.
`CC1(C)CN(c2cnn3c2CN(C(=O)c2cc4cccc(Cl)c4[nH]2)CC3)C(=O)O1` [Compound 2.9] was tested, and the EC50 was 0.1 to 1 µM.
Compound `Cc1cccc2cc(C(=O)N3CCn4ncc(N5CC(C)(C)OC5=O)c4C3)[nH]c12` [Compound 2.18] has an EC50 of 0.1 to 1 µM.
Compound `CC1(C)CN(c2cnn3c2CN(C(=O)c2cc4ccccc4[nH]2)CC3)C(=O)CO1` [Compound 1.5] has an EC50 of 0.1 to 1 µM.
